Data on 64 compounds can be found in patent US9346761B2, “Arginine methyltransferase inhibitors and uses thereof” (Epizyme, Inc., priority 2013, dated 2016).

Usually IC50 stands for the concentration that gives 50% inhibition. Read a low IC50 as inhibition by little substance.

Test [1] has as its target T1, Full-length human PRMT1 isoform 1 (Homo sapiens, UniProt Q99873).
T1 construct: GST-tagged PRMT1; made in house; host or cells: High Five insect cells (baculovirus, pFastBacI)
Put plainly: PRMT1 biochemical assay (3H-SAM Flashplate, peptide substrate). In short, it runs like this: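 Tritiated methyl transfer from 3H-SAM onto biotinylated peptide, captured on streptavidin Flashplates and counted. Baculovirus-expressed GST-PRMT1 and compound were preincubated 30 min at room temperature in Bicine buffer pH 7.6. Cold SAM at 300 uM final ended the reaction.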

Test [2] deals with T2, Full-length human PRMT8 (Homo sapiens, UniProt Q9NR22).
T2 construct: Full-length human PRMT8 (NM_019854.4) isoform 1 transcript clone; made in house
Put plainly: PRMT8 biochemical assay (3H-SAM Flashplate, peptide substrate). In outline: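 Methylation of a biotinylated H4 (31-45) peptide by ³H-SAM was counted after streptavidin Flashplate capture. Purified recombinant PRMT8 and compound were preincubated 30 min at room temperature in Bicine buffer pH 7.6 with TCEP, BSG and Tween 20, and reactions were stopped with unlabeled SAM (final 400 μM). Inhibition versus DMSO and SAH controls was fit by 3- or 4-parameter curves.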

The structures appear in SMILES notation.

T2 sequence (Q9NR22 whole entry, canonical isoform): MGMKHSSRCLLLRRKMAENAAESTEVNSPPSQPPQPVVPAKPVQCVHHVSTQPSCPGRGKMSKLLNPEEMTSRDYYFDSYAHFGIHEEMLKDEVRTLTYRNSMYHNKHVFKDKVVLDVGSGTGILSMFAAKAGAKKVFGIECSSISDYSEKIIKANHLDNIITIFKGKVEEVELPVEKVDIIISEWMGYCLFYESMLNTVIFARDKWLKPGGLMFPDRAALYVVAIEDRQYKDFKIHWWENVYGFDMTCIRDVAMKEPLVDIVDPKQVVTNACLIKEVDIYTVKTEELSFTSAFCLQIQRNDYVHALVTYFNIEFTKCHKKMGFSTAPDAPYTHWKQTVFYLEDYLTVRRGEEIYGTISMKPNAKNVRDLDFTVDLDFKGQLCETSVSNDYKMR
T1 sequence (Q99873 with tags, fused parts or gaps): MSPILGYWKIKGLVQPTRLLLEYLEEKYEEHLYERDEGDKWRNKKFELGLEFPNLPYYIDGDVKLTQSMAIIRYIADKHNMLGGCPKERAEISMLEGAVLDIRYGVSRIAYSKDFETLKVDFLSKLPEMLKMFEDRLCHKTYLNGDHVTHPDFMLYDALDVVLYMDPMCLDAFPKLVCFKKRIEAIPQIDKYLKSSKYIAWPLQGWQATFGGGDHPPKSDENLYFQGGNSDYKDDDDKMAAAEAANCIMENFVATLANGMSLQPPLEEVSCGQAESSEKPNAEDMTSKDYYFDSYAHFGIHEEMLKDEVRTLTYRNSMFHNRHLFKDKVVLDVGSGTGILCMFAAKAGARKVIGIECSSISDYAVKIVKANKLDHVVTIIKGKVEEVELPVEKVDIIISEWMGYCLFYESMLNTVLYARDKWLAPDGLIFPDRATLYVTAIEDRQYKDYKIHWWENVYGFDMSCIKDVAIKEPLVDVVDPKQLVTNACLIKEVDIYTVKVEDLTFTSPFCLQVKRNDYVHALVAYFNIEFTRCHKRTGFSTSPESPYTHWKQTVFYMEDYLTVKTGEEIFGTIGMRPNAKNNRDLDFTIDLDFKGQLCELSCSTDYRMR

In the case of `CNCCN(C)Cc1c[nH]nc1-c1ccc(F)cc1` [Compound 2, N^1-((3-(4-fluorophenyl)-1H-pyrazol-4-yl)methyl)-N^1,N^2-dimethylethane-1,2-diamine], the half-inhibitory concentration (IC50) in test [1] was less than 100 nM; in test [2], 101 to 1000 nM.
For `CN(CCN)Cc1cn(C)nc1-c1ccc(F)cc1` [Compound 3] the same measures were less than 100 nM and 101 to 1000 nM.
For `CN(CCN)Cc1cnn(C)c1-c1ccc(F)cc1` [Compound 4], in that order: 101 to 1000 nM and 1010 to 3000 nM.
`CCN(CCNC)Cc1c[nH]nc1-c1ccc(F)cc1` [Compound 9] gave a 50% inhibitory concentration (IC50) in test [2] of 101 to 1000 nM.
Still for that read-out and setting: for `CNCCN(C)Cc1cnn(C)c1-c1ccc(F)cc1` [Compound 10] the value was 101 to 1000 nM; for `CNCCN(C)Cc1cn(CC2CCOCC2)nc1-c1ccc(F)cc1` [Compound 11], greater than 10000 nM.
Compound `CNCCN(C)Cc1cnn(CC2CCOCC2)c1-c1ccc(F)cc1` [Compound 12] displayed an IC50 in test [2] greater than 10000 nM.
Still for that read-out and setting: for `CNCCN(C)Cc1c[nH]nc1-c1cccc(N)c1` [Compound 32] the value was 1010 to 3000 nM; for `CNCCN(C)Cc1c[nH]nc1-c1ccc(CC#N)cc1` [Compound 34], 101 to 1000 nM; for `CNCCN(C)Cc1c[nH]nc1-c1ccccc1O` [Compound 35], greater than 10000 nM.
Regarding `CNCCN(C)Cc1c[nH]nc1-c1ccccc1Oc1ccccc1` [Compound 36], the half-maximal inhibitory concentration (IC50) in test [2] is greater than 10000 nM.
With `CNCCN(C)Cc1c[nH]nc1-c1cccc(OC(F)(F)F)c1` [Compound 39], in test [2], the IC50 was 101 to 1000 nM.
In turn, `CNCCN(C)Cc1c[nH]nc1-c1ccccc1NS(C)(=O)=O` [Compound 41] came in with an IC50 in test [2] greater than 10000 nM.
In test [2], `CNCCN(C)Cc1c[nH]nc1-c1cccc(NC(C)=O)c1` [Compound 42] registered a 50% inhibitory concentration (IC50) of 1010 to 3000 nM.
The same measure, in the same setting: for `CNCCN(C)Cc1c[nH]nc1-c1cccc(C(C)=O)c1` [Compound 44] the value was 101 to 1000 nM.
In the case of `CNCCN(C)Cc1c[nH]nc1-c1ccc(C(=O)c2ccccc2)cc1` [Compound 45], the half-maximal inhibitory concentration (IC50) is less than 100 nM in test [1] and 101 to 1000 nM in test [2].
For `CNCCN(C)Cc1c[nH]nc1-c1ccccc1-c1ccccc1` [Compound 46], in that order: 1010 to 3000 nM and greater than 10000 nM.
`CNCCN(C)Cc1c[nH]nc1-c1ccc(-c2ccccc2)cc1` [Compound 47] had a half-maximal inhibitory concentration (IC50) in test [2] of less than 100 nM.
Still for that read-out and setting: for `CNCCN(C)Cc1c[nH]nc1-c1ccccc1F` [Compound 48] the value was 1010 to 3000 nM.
Take `CNCCN(C)Cc1c[nH]nc1-c1ccc(F)cc1F` [Compound 49]: the IC50 in test [1] and in test [2] was 101 to 1000 nM throughout.
In the case of `CNCCN(C)Cc1c[nH]nc1-c1cc(F)ccc1F` [Compound 50], the concentration for half-maximal inhibition (IC50) lay in the range of 101 to 1000 nM in test [1] and 1010 to 3000 nM in test [2].
For `CNCCN(C)Cc1c[nH]nc1-c1ccc(F)c(F)c1` [Compound 51], in that order: less than 100 nM and 101 to 1000 nM.
Turning to `CNCCN(C)Cc1c[nH]nc1-c1ccc(OC)c(F)c1` [Compound 52], the figures for the IC50 in test [1] and in test [2] were less than 100 nM and 101 to 1000 nM, respectively.
For `CNCCN(C)Cc1c[nH]nc1-c1cc(Cl)ccc1OC` [Compound 53], in that order: 3010 to 10000 nM and greater than 10000 nM.
For `CNCCN(C)Cc1c[nH]nc1-c1cccc(OC)c1OC` [Compound 54], in that order: 101 to 1000 nM and 3010 to 10000 nM.
For `CNCCN(C)Cc1c[nH]nc1-c1ccc(OC)cc1OC` [Compound 55], in that order: 101 to 1000 nM and 3010 to 10000 nM.
As to `CNCCN(C)Cc1c[nH]nc1-c1c(OC)cccc1OC` [Compound 56], the IC50 in test [1] was 3010 to 10000 nM; in test [2] it was greater than 10000 nM.
For `CNCCN(C)Cc1c[nH]nc1-c1cccc2ccccc12` [Compound 57], in that order: less than 100 nM and 101 to 1000 nM.
For `CNCCN(C)Cc1c[nH]nc1-c1ccc2ccccc2c1` [Compound 58], in that order: less than 100 nM and 101 to 1000 nM.
For `CNCCN(C)Cc1cn(CCC(O)CO)nc1-c1ccc(F)cc1` (stereo not drawn) [Compound 59], the IC50 in test [1] and in test [2] was 3010 to 10000 nM in each case.
Take `CCNCCN(C)Cc1c[nH]nc1-c1ccc(F)cc1` [Compound 60]: the half-maximal inhibitory concentration (IC50) in test [1] fell in the range of 101 to 1000 nM; in test [2], 1010 to 3000 nM.
For `COCCn1cc(CN(C)CCN(C)C)c(-c2ccc(F)cc2)n1` [Compound 61], in that order: greater than 10000 nM and greater than 10000 nM.
For `CCN(CCN)Cc1c[nH]nc1-c1ccc(F)cc1` [Compound 62] the same measures were less than 100 nM and 101 to 1000 nM.
For `CCCN(CCN)Cc1c[nH]nc1-c1ccc(F)cc1` [Compound 63] the same measures were 1010 to 3000 nM and 3010 to 10000 nM.
As to `COCCn1ncc(CN(C)CCN(C)C)c1-c1ccc(F)cc1` [Compound 64], the IC50 in test [1] and in test [2] was greater than 10000 nM in each case.
For the compound `CN(CCN)Cc1cnn(CCO)c1-c1ccc(F)cc1` [Compound 65], the concentration for half-maximal inhibition (IC50) in test [1] was 1010 to 3000 nM; in test [2], 3010 to 10000 nM.
For `CN(CCN)Cc1cn(CCO)nc1-c1ccc(F)cc1` [Compound 66], in that order: 1010 to 3000 nM and 3010 to 10000 nM.
For the compound `CN(CCN)Cc1c[nH]nc1-c1ccc(C#N)cc1` [Compound 68], the IC50 is less than 100 nM in test [1] and 101 to 1000 nM in test [2].
Take `CN(CCN)Cc1n[nH]cc1-c1ccc(F)cc1` [Compound 69]: the concentration for half-maximal inhibition (IC50) is less than 100 nM in test [1] and 1010 to 3000 nM in test [2].
In the case of `CN(CCN)Cc1c[nH]nc1-c1cccc(C#N)c1` [Compound 70], the IC50 in test [1] lay within 101 to 1000 nM; in test [2] it was 1010 to 3000 nM.
For `CN(CCN)Cc1c[nH]nc1-c1cccc(F)c1` [Compound 71] the same measures were less than 100 nM and 101 to 1000 nM.
For `CN(CCN)Cc1c[nH]nc1-c1ccccc1F` [Compound 72], in that order: 101 to 1000 nM and 3010 to 10000 nM.
For `CN(CCN)Cc1c[nH]nc1-c1ccccc1` [Compound 73] the same measures were 101 to 1000 nM and 101 to 1000 nM.
Turning to `CN(CCN)Cc1c[nH]nc1-c1ccc(C(C)(C)C)cc1` [Compound 74], the IC50 in test [1] was less than 100 nM; in test [2], 101 to 1000 nM.
For `CC(C)N(CCN)Cc1c[nH]nc1-c1ccc(F)cc1` [Compound 75] the same measures were 101 to 1000 nM and 1010 to 3000 nM.
For `CN(CCN)Cc1cn(CC(O)CO)nc1-c1ccc(F)cc1` (stereo not drawn) [Compound 76] the same measures were 3010 to 10000 nM and greater than 10000 nM.
For `CN(CCN)Cc1cn(C2COC2)nc1-c1ccc(F)cc1` [Compound 77] the same measures were 101 to 1000 nM and 1010 to 3000 nM.
Turning to `NCCN(Cc1c[nH]nc1-c1ccc(F)cc1)C1CC1` [Compound 78], the half-inhibitory concentration (IC50) in test [1] lay within 101 to 1000 nM; in test [2], 1010 to 3000 nM.
For `CN(CCN)Cc1cn(CC2COC2)nc1-c1ccc(F)cc1` [Compound 79] the same measures were greater than 10000 nM and greater than 10000 nM.
On to `CN(CCN)Cc1cnn(CC2COC2)c1-c1ccc(F)cc1` [Compound 80], for which the IC50 in test [1] and in test [2] was greater than 10000 nM each time.
Consider `CN(CCN)Cc1cnn(C2COC2)c1-c1ccc(F)cc1` [Compound 81], for which the IC50 in test [1] lay within 101 to 1000 nM; in test [2] it was 3010 to 10000 nM.
Take `CN(CCN)Cc1c[nH]nc1-c1ccc(N2CCNCC2)cc1` [Compound 82]: the IC50 in test [1] is less than 100 nM; in test [2] it was 1010 to 3000 nM.
On to `CN(CCN)Cc1nn(C)cc1-c1ccc(C#N)cc1` [Compound 83], for which the IC50 is less than 100 nM in test [1] and 101 to 1000 nM in test [2].
For `CN(CCN)Cc1c(-c2ccc(C#N)cc2)cnn1C` [Compound 84] the same measures were greater than 10000 nM and greater than 10000 nM.
For `CN(CCN)Cc1c[nH]nc1-c1ccc(C(F)(F)F)cc1C(F)(F)F` [Compound 85], in that order: 101 to 1000 nM and 3010 to 10000 nM.
For `CN(CCN)Cc1c[nH]nc1-c1ccc(Cl)cc1Cl` [Compound 86], in that order: less than 100 nM and 101 to 1000 nM.
Take `COc1ccc(-c2n[nH]cc2CN(C)CCN)c(OC)c1` [Compound 87]: the concentration for half-maximal inhibition (IC50) in test [1] was 101 to 1000 nM; in test [2], 3010 to 10000 nM.
For `Cc1ccc(-c2n[nH]cc2CN(C)CCN)c(C)c1` [Compound 88] the same measures were 101 to 1000 nM and 1010 to 3000 nM.
For `CN(CCN)Cc1c[nH]nc1-c1ccc(F)cc1Cl` [Compound 89] the same measures were less than 100 nM and 1010 to 3000 nM.
Consider `Cc1ccc(-c2n[nH]cc2CN(C)CCN)c(Cl)c1` [Compound 90], for which the half-inhibitory concentration (IC50) is less than 100 nM in test [1] and 1010 to 3000 nM in test [2].
For `Cc1ccc(Cl)c(-c2n[nH]cc2CN(C)CCN)c1` [Compound 91], in that order: 101 to 1000 nM and 3010 to 10000 nM.
In the case of `CN(CCN)Cc1c[nH]nc1-c1ccc(C(F)(F)F)cc1` [Compound 92], the IC50 in test [1] is less than 100 nM; in test [2], 101 to 1000 nM.
For `CN(CCN)Cc1c[nH]nc1-c1ccc(OC(F)(F)F)cc1` [Compound 93] the same measures were less than 100 nM and less than 100 nM.
For `CN(CCN)Cc1c[nH]nc1-c1ccc(OC(F)F)cc1` [Compound 94], in that order: less than 100 nM and 101 to 1000 nM.
